Test results reported in US20200239530A1, “COMPOUNDS AND METHODS OF MODULATING PROTEIN DEGRADATION” (Vividion Therapeutics, Inc., priority 2017, published 2020).

What was measured:
Assay in all cases: Competitive cysteine profiling, probe competition (Table 2B)
Format in all cases: binding
Q9H0C5 = target: T1, Q9H0C5 (Homo sapiens, UniProt Q9H0C5)
T1 construct: 200 μL of lysate containing 5 mg/ml proteome was treated with 2 μL of 100× compound stock; endogenous in cells
T1 sequence (Q9H0C5 1-482): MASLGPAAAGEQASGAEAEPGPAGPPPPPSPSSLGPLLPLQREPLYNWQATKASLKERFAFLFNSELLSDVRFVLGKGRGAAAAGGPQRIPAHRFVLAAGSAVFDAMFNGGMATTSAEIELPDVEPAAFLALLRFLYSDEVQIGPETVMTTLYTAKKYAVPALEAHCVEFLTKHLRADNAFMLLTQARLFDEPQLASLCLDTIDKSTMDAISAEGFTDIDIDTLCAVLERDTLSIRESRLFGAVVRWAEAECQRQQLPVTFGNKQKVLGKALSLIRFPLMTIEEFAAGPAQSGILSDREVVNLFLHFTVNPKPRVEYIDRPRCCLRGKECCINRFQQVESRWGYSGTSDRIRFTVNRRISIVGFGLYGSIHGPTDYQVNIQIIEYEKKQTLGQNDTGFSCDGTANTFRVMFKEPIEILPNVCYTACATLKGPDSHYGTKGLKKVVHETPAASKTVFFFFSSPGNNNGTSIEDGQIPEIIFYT
Excerpt: (§1) The following 96-well sample prep protocol was used for sample preparation.

Q9P203 = target: T2, Q9P203 (Homo sapiens, UniProt Q9P203)
T2 construct: 200 μL of lysate containing 5 mg/ml proteome was treated with 2 μL of 100× compound stock; endogenous in cells
T2 sequence (Q9P203 1-1132): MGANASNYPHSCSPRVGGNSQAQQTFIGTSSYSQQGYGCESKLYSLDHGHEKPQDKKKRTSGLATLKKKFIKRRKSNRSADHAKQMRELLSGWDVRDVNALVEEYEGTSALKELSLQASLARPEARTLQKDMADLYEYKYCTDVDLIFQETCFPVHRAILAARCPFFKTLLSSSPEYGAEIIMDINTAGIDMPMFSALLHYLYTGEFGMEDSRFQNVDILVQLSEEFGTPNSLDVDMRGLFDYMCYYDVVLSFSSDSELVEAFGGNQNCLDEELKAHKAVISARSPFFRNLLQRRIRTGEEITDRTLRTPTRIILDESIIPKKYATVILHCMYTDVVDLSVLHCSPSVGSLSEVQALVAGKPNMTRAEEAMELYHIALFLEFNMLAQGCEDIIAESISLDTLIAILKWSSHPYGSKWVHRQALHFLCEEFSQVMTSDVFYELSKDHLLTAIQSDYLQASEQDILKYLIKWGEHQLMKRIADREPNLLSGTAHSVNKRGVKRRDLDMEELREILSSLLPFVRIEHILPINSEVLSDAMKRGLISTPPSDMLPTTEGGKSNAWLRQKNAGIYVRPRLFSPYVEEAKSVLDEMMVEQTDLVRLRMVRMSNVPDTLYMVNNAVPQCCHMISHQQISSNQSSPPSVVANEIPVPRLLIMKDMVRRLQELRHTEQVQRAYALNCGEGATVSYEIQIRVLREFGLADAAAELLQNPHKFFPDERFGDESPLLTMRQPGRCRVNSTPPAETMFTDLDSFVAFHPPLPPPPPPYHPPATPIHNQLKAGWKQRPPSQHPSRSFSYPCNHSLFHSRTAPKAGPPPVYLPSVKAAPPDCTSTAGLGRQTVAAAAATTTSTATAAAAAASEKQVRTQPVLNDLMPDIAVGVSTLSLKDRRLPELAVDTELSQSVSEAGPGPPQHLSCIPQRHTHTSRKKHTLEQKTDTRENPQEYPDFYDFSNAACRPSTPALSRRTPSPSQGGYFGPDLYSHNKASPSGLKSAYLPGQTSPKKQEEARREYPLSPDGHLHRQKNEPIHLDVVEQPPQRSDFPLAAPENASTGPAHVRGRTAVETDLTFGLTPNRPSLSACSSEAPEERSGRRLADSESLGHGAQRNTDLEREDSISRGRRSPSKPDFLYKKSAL
Excerpt: as §1

Q9BSF8 = target: T3, Q9BSF8 (Homo sapiens, UniProt Q9BSF8)
T3 construct: 200 μL of lysate containing 5 mg/ml proteome was treated with 2 μL of 100× compound stock; endogenous in cells
Excerpt: as §1

Q9P2G1 = target: T4, Q9P2G1 (Homo sapiens, UniProt Q9P2G1)
T4 construct: Cells were resuspended in cold PBS on ice and sonicated with a probe sonicator to achieve lysis; endogenous in cells
T4 sequence (Q9P2G1 1-1089): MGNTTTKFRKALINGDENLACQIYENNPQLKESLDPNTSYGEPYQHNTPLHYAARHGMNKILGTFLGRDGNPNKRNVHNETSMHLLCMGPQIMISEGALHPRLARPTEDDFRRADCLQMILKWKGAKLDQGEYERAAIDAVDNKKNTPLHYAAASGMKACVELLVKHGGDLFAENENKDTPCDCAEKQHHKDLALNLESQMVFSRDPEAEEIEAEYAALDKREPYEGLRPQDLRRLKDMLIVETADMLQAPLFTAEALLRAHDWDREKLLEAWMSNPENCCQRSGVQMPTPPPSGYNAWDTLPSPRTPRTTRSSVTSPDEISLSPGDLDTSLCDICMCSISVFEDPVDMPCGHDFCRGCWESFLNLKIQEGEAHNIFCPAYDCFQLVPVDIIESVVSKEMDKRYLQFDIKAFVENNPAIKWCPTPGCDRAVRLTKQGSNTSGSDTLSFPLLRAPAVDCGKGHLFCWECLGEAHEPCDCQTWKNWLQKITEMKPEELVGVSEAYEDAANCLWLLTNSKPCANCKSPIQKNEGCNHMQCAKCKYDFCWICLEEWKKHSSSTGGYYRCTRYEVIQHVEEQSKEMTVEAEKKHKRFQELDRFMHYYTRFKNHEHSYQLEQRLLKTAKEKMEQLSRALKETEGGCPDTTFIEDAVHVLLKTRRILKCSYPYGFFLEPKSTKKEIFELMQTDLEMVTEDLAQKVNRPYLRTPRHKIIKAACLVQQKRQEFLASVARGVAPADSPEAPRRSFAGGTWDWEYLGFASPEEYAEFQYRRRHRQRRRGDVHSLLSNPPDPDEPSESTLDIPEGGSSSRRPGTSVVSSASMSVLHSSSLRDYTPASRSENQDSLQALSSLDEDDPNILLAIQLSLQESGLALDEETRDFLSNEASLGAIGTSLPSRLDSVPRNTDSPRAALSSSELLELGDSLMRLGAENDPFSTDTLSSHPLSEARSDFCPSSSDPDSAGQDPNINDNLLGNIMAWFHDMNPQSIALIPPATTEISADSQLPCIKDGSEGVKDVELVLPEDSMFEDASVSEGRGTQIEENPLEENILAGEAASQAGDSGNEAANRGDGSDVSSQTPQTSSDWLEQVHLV
Excerpt: as §1

[1] = 500 uM, read-out: KB05_500 uM_percent_inhibition

T3 sequence (Q9BSF8 whole entry): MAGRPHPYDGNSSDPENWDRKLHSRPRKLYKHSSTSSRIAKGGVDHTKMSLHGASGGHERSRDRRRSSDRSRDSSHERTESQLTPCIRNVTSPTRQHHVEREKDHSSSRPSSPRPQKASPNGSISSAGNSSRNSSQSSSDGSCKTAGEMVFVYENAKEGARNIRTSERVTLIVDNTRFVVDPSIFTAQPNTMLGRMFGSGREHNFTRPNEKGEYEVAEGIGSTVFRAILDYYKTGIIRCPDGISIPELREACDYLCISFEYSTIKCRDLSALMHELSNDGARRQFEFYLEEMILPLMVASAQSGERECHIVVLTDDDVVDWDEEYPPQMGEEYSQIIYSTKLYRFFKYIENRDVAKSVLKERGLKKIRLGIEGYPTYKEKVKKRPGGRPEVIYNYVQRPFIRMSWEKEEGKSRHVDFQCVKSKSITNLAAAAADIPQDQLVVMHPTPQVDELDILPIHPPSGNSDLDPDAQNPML

COc1ccc2c(c1)CCCN2C(=O)CCl [KB02]
inhibition at 100 µM (Q9H0C5; 100 uM, read-out: KB02_100 uM_percent_inhibition): 9%
KB02_500 uM_percent_inhibition (Q9P203; 500 uM): 17%
inhibition at 500 µM (Q9P203; read-out: KB02_500 uM_percent_inhibition): 12%

C=CC(=O)N(c1ccccc1)c1ccc(Br)cc1 [KB05]
inhibition at 100 µM (Q9BSF8; 100 uM, read-out: KB05_100 uM_percent_inhibition): 27%
KB05_500 uM_percent_inhibition (Q9BSF8; 500 uM): 53%
inhibition at 500 µM (Q9BSF8; [1]): 37%
KB05_500 uM_percent_inhibition (Q9H0C5; 500 uM): 36%
inhibition at 500 µM (Q9H0C5; [1]): 56%
KB05_100 uM_percent_inhibition (Q9P2G1; 100 uM): 22%
inhibition at 100 µM (Q9P2G1; read-out: KB05_100 uM_percent_inhibition): 41%

O=C(CCl)Nc1cc(C(F)(F)F)cc(C(F)(F)F)c1 [KBO3]
KB03_100 uM_percent_inhibition (Q9BSF8; 100 uM): 29%
KB03_500 uM_percent_inhibition (Q9P203; 500 uM): 13%
KB03_100 uM_percent_inhibition (Q9P2G1; 100 uM): 29%
